According to US7189859B2, “Radiolabelled phenylethyl imidazole carboxylic acid ester derivatives” (priority 2003, dated 2007):
Read-outs that look alike come from different tables or passages of the source.

What was measured:
[1] = target: T1, cytochrome P-45011β enzyme system (Rattus norvegicus, UniProt P15393); assay: Displacement of [^131I]MTO binding
T1 construct: Whole adrenals from adult male Wistar rats were homogenized; from tissue; host or cells: whole adrenals of adult male Wistar rats, washed membrane pellet
T1 sequence (P15393 25-499): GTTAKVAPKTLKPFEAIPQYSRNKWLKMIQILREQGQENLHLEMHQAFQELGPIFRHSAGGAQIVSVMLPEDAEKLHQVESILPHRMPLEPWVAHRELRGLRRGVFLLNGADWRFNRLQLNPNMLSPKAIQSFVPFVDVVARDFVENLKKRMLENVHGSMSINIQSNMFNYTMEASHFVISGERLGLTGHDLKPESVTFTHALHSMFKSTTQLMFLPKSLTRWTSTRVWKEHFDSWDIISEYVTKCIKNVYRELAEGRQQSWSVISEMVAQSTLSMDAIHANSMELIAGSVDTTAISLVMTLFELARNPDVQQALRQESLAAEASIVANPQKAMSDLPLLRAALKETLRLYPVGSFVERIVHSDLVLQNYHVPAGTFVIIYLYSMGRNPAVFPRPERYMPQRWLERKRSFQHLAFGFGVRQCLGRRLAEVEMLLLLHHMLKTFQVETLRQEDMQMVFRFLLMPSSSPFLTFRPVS
Method: Test compounds were incubated at 0.01–100 nM concentrations. Non-specific binding was determined with etomidate (10 μM). […] The filters containing membranes with bound radioligand were measured in a gamma-spectrometer.
IC50 values (the molar concentration of compound necessary to inhibit binding by 50%) were determined for each test compound by non-linear, least squares regression analysis, using an iterative curve fitting routine.

[2] = test system: lesions of adrenocortical origin; details: clinical; cited from earlier work
[3] = target: T2, rat adrenal membranes (cytochrome P-450 β-hydroxylase) (Rattus norvegicus, UniProt P15393); assay: [^131I]MTO binding to rat adrenal membranes (association, dissociation, saturation); details: for observable association rate constant v: data pooled from 7 experiments
T2 sequence (P15393 25-499): T1 sequence (P15393 25-499)
Method: Whole adrenals from adult male Wistar rats were homogenized in 10 mM K2HPO4/10 mM HEPES (pH 7.1) with a glass/teflon piston (Potter-type). The homogenate was centrifuged at 35.000×g for 10 min, the pellet was resuspended in fresh buffer and centrifuged again. Membranes were washed 2 more times and stored as aliquots at −80° C.
After incubation, membranes with bound radioligand were isolated by filtration through Whatman GF/B glass fiber filters (presoaked in buffer), followed by 2×4 mL washings with buffer, then filters were measured in a gamma-spectrometer.
For dissociation experiments, membranes were fully equilibrated with 2 nM radioligand, and the dissociation was initiated by the addition of excess unlabelled 4-iodo-MTO and stepwise filtration at 15 sec intervals.
For saturation studies 2–100 nM 4-iodo-MTO carrier was used. See summary in FIG. 1. […] Incubation for 30 minutes using 10 mM K2HPO4/10 mM HEPES, 150 mM NaCl (pH 7.1).

[4] = test system: adrenals; assay: In vivo evaluation of ^131I-MTO (organ distribution after tail vein injection); details: rats
Method: Method: ^131I-MTO was used with a radiochemical purity >99% and a specific activity of 57 GBq/μmol. The radiotracer (0.5–1.1 MBq; […]) was injected into the tail vein of rats (female, 180–220 gram). Groups of four rats were sacrifized at specified times up to 24 hours post injection. The organs were excised and weighed, the radioactivity was measured at constant geometry using a gamma-spectrometer with a Nal(TI)-crystal. The data were expressed as percent of injected dose (ID) per organ and as percent of ID per gram tissue.

[5] = test system: steroid 11β-hydroxylation; details: human adrenocortical tissue slices; cited from earlier work
[6] = read-out: IC50 (inhibition of [^131I]MTO binding), rat adrenal membranes

CC(c1ccccc1)n1cncc1C(=O)O (stereo not drawn) [ETO-acid]
IC50 [1, 6]: 123000 nM

COC(=O)c1cncn1[C@H](C)c1ccc(I)cc1 [Example 4-iodo-MTO, (R)-methyl 3-[1-(4-iodophenyl)ethyl]-3H-imidazole-4-carboxylate]
IC50 [1]: 9 nM

C[C@H](c1ccccc1)n1cncc1C(=O)OCCF [FETO]
IC50 [1, 6]: 3 nM

CC(C)(C(=O)c1cccnc1)c1cccnc1 [Metyrapone]
IC50 [1]: 1200 nM

COC(=O)c1cncn1C(C)c1ccccc1 (stereo not drawn) [[O-methyl-^11C]metomidate]
uptake in lesions of adrenocortical origin, including adenomas [2]: high uptake
uptake in lesions of non-adrenocortical origin [2]: very low uptake

COC(=O)c1cncn1[C@H](C)c1ccc(I)cc1 [[^131I]MTO, (R)-3-[1-(4-[^131I]iodophenyl)ethyl]-3H-imidazole-4-carboxylic acid methyl ester]
Kd ([3]; saturation analysis, 2–100 nM 4-iodo-MTO carrier, 30 minutes incubation, pH 7.1, (15)): 7.4 ± 2.8 nM

COC(=O)c1cncn1[C@H](C)c1ccc([131I])cc1 [[^131I]MTO, (R)-3-[1-(4-[^131I]iodophenyl)ethyl]-3H-imidazole-4-carboxylic acid methyl ester]
duration of radioactivity plateau in the adrenals ([4]; intravenous (tail vein)): 2 h
route of elimination ([4]; intravenous (tail vein)): eliminated both by hepatobiliary and by renal excretion
specific uptake in the adrenals ([4]; intravenous (tail vein)): approximately 10 % ID/g tissue
time post injection up to which renal activity is increasing ([4]; renal activity attributed to ^131I-ETO-acid): up to 4 hours
observable association rate constant v ([3]; ligand concentration 2 nM 4-iodo-MTO): 0.65 min⁻¹
observable association rate constant v ([3]; ligand concentration 4 nM 4-iodo-MTO): 1.23 min⁻¹
observable association rate constant v ([3]; ligand concentration 11 nM 4-iodo-MTO): 1.34 min⁻¹

CCOC(=O)c1cncn1[C@H](C)c1ccccc1 [etomidate]
inhibition of steroid 11β-hydroxylation [5]: block the conversion of 11-deoxycortisol to cortisol and of 11-deoxycorticosterone (DOC) to corticosterone and aldosterone
IC50 [1]: 1.1 nM

COC(=O)c1cncn1C(C)c1ccccc1 (stereo not drawn) [metomidate]
inhibition of steroid 11β-hydroxylation [5]: equally potent inhibitor
IC50 [1]: 3.7 nM
